Source: PubChem BioAssay AID2060614 (Molecular Pharmacology Branch, DTP, NCI, 2025)
Where “and” joins values, the source holds several entries; their conditions need not be identical. Equal values may be shown once.

Tested on: 598228-144-R-J1-PDC complex spheroids, viability
Experiment: Anticancer human tumor 598228-144-R-J1-PDC patient-derived serous endometrial adenocarcinoma cell line growth inhibition [CLK]
Conditions: for viability, T/C: stronger effect = lower value
In short: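 Patient-derived tumor cells grown as complex spheroids with HUVEC endothelial cells and mesenchymal stem cells, treated with drug combinations. Concentrations descend in half-log steps from near clinical Cmax, or from 10 microM if Cmax unknown.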

[1] = curve of first compound, second compound 0.0316 µM
[2] = curve of first compound, second compound 0.1 µM
[3] = curve of first compound, second compound 0.316 µM
[4] = curve of first compound, second compound 1 µM
[5] = curve of first compound, second compound 3.16 µM
[6] = curve of first compound, second compound 10 µM
[7] = second compound 0.0316 µM, first compound 0.0316 µM
[8] = second compound 0.0316 µM, first compound 0.1 µM
[9] = second compound 0.0316 µM, first compound 0.316 µM
[10] = second compound 0.0316 µM, first compound 1 µM
[11] = second compound 0.0316 µM, first compound 3.16 µM
[12] = second compound 0.0316 µM, first compound 10 µM
[13] = second compound 0.1 µM, first compound 0.0316 µM
[14] = second compound 0.1 µM, first compound 0.1 µM
[15] = second compound 0.1 µM, first compound 0.316 µM
[16] = second compound 0.1 µM, first compound 1 µM
[17] = second compound 0.1 µM, first compound 3.16 µM
[18] = second compound 0.1 µM, first compound 10 µM
[19] = second compound 0.316 µM, first compound 0.0316 µM
[20] = second compound 0.316 µM, first compound 0.1 µM
[21] = second compound 0.316 µM, first compound 0.316 µM
[22] = second compound 0.316 µM, first compound 1 µM
[23] = second compound 0.316 µM, first compound 3.16 µM
[24] = second compound 0.316 µM, first compound 10 µM
[25] = second compound 1 µM, first compound 0.0316 µM
[26] = second compound 1 µM, first compound 0.1 µM
[27] = second compound 1 µM, first compound 0.316 µM
[28] = second compound 1 µM, first compound 1 µM
[29] = second compound 1 µM, first compound 3.16 µM
[30] = second compound 1 µM, first compound 10 µM
[31] = second compound 3.16 µM, first compound 0.0316 µM
[32] = second compound 3.16 µM, first compound 0.1 µM
[33] = second compound 3.16 µM, first compound 0.316 µM
[34] = second compound 3.16 µM, first compound 1 µM
[35] = second compound 3.16 µM, first compound 3.16 µM
[36] = second compound 3.16 µM, first compound 10 µM
[37] = second compound 10 µM, first compound 0.0316 µM
[38] = second compound 10 µM, first compound 0.1 µM
[39] = second compound 10 µM, first compound 0.316 µM
[40] = second compound 10 µM, first compound 1 µM
[41] = second compound 10 µM, first compound 3.16 µM
[42] = second compound 10 µM, first compound 10 µM
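Further: spheroids exposed to compounds for seven days before readout.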
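Wherever viability, T/C is given: 100% = DMSO vehicle control wells.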

Structure (SMILES): CC1COCCN1c1cc(C2(S(C)(=N)=O)CC2)nc(-c2ccnc3[nH]ccc23)n1 (stereo not drawn)
- viability, T/C (compound 0.0316 µM): 96.7% and 86.2%
- viability, T/C (compound 0.1 µM): 110% and 86.8%
- viability, T/C (compound 0.316 µM): 98.8% and 87.7%
- viability, T/C (compound 1 µM): 72.7% and 79%
- viability, T/C (compound 3.16 µM): 58.1% and 61.5%
- viability, T/C (compound 10 µM): 34.3% and 34.9%
- IC50 (curve of compound): 4040 nM and 5180 nM

Structure (SMILES): COc1cccc2c1C(=O)c1c(O)c3c(c(O)c1C2=O)CC(O)(C(=O)CO)CC3OC1CC(N)C(O)C(C)O1 (stereo not drawn) + CN1CCN(c2cc(C(=O)Nc3cc4cc(-c5cnn(C)c5)ccc4cn3)ccn2)CC1
- IC50 [1]: 263 nM
- IC50 [2]: 224 nM
- IC50 [3]: < 31.6 nM
- IC50 [4]: < 31.6 nM
- IC50 [5]: < 31.6 nM
- IC50 [6]: < 31.6 nM
- viability, T/C [7]: 114%
- viability, T/C [8]: 116%
- viability, T/C [9]: 37.5%
- viability, T/C [10]: 7.36%
- viability, T/C [11]: 0.34%
- viability, T/C [12]: 0.49%
- viability, T/C [13]: 150%
- viability, T/C [14]: 109%
- viability, T/C [15]: 24.6%
- viability, T/C [16]: 3.45%
- viability, T/C [17]: 0.34%
- viability, T/C [18]: 1.62%
- viability, T/C [19]: 14.6%
- viability, T/C [20]: 14.6%
- viability, T/C [21]: 3.54%
- viability, T/C [22]: 0.66%
- viability, T/C [23]: 0.34%
- viability, T/C [24]: 2.75%
- viability, T/C [25]: 1.14%
- viability, T/C [26]: 0.59%
- viability, T/C [27]: 1%
- viability, T/C [28]: 0.68%
- viability, T/C [29]: 0.96%
- viability, T/C [30]: 2.88%
- viability, T/C [31]: 1.47%
- viability, T/C [32]: 3.06%
- viability, T/C [33]: 0.97%
- viability, T/C [34]: 0.79%
- viability, T/C [35]: 1.31%
- viability, T/C [36]: 4.32%
- viability, T/C [37]: 0.73%
- viability, T/C [38]: 0.59%
- viability, T/C [39]: 3.86%
- viability, T/C [40]: 0.35%
- viability, T/C [41]: 0.23%
- viability, T/C [42]: 3.87%

Structure (SMILES): COc1cccc2c1C(=O)c1c(O)c3c(c(O)c1C2=O)CC(O)(C(=O)CO)CC3OC1CC(N)C(O)C(C)O1 (stereo not drawn)
- viability, T/C (compound 0.0316 µM): 75.6% and 69%
- viability, T/C (compound 0.1 µM): 76.5% and 74%
- viability, T/C (compound 0.316 µM): 43.8% and 43.9%
- viability, T/C (compound 1 µM): 14% and 12.3%
- viability, T/C (compound 3.16 µM): 0.38% and 0.72%
- viability, T/C (compound 10 µM): 0.37% and 0.77%
- IC50 (curve of compound): 266 nM and 257 nM

Structure (SMILES): O=c1[nH]cc(F)c(=O)[nH]1 + CN1CCN(c2cc(C(=O)Nc3cc4cc(-c5cnn(C)c5)ccc4cn3)ccn2)CC1
- IC50 [1]: > 10000 nM
- IC50 [2]: > 10000 nM
- IC50 [3]: < 31.6 nM
- IC50 [4]: < 31.6 nM
- IC50 [5]: < 31.6 nM
- IC50 [6]: < 31.6 nM
- viability, T/C [7]: 128%
- viability, T/C [8]: 120%
- viability, T/C [9]: 132%
- viability, T/C [10]: 125%
- viability, T/C [11]: 125%
- viability, T/C [12]: 96.5%
- viability, T/C [13]: 149%
- viability, T/C [14]: 119%
- viability, T/C [15]: 123%
- viability, T/C [16]: 139%
- viability, T/C [17]: 113%
- viability, T/C [18]: 96%
- viability, T/C [19]: 20.4%
- viability, T/C [20]: 25%
- viability, T/C [21]: 18.3%
- viability, T/C [22]: 18%
- viability, T/C [23]: 18.1%
- viability, T/C [24]: 21.4%
- viability, T/C [25]: 1.7%
- viability, T/C [26]: 1.4%
- viability, T/C [27]: 1.3%
- viability, T/C [28]: 1.91%
- viability, T/C [29]: 4.01%
- viability, T/C [30]: 5.93%
- viability, T/C [31]: 1.76%
- viability, T/C [32]: 3.81%
- viability, T/C [33]: 1.88%
- viability, T/C [34]: 2.14%
- viability, T/C [35]: 1.46%
- viability, T/C [36]: 5.59%
- viability, T/C [37]: 0.99%
- viability, T/C [38]: 0.93%
- viability, T/C [39]: 0.6%
- viability, T/C [40]: 1.01%
- viability, T/C [41]: 5.93%
- viability, T/C [42]: 4.87%
